Tested on: Chlorella sp. ATCC 7516
Experiment: Algal efficacy testing of dry paint films (modified ASTM 5589, 6-well plates)
Type: cell-based
Description: These paints were then diluted with a biocide free acrylic/silicone based paint and mixed to prepare targeted concentrations of biocide combinations for the testing. The total biocides concentrations obtained were 125, 250, 500, 1000, 2000 and 5000 ppm. After biocides addition or dilution, the paints were mixed 90 seconds with the horse power shaker (AXEL 75M3372/Agitateur SO-10MI) until uniformity was achieved. […] After one day, the paints were applied to Schleicher & Schuell filter paper at 280 μm wet film thickness and dried for 3 days at room temperature avoiding direct exposure to sunlight. Square discs (1.8 cm×1.8 cm) were cut out from each panel and were used as the substrate for algal efficacy tests. This sample size allowed for an agar border when the sample disc was placed into the well of the test plate.
Algal efficacy was tested according to modified ASTM 5589 which is a standard accelerated test method for determining resistance of various coatings (including paints) to algal defacement. To accommodate for high-throughput screening, this method was scaled down from petri plates to 6-well plates. Bold Modified Basal Freshwater Nutrient Solution was used as growth medium for the algal culture and Bold's agar was used for the efficacy testing. A single coupon was placed with a pair of sterile forceps at the center of the agar plug (on top) with the painted surface facing upwards. The algal inoculum was prepared by diluting an exponentially growing culture of Chlorella sp. to 1×10^6 cfu/ml.
Each well that contains a tested coupon was inoculated with 1750 μl of algal suspension (1×10^6 cfu/ml) making sure that the whole surface (paint film as well as the agar surrounding it) was evenly covered. The plates were incubated at room temp (21° C.-25° C.) with cyclic exposure to 14 hours fluorescent light followed by 10 hours darkness, for a period of three weeks.
At the end of the incubation period the samples were scored for percent inhibition regarding color intensity compared to the blank sample
The SI is calculated based on F. C. Kull et. […]

Row | SMILES | inhibition at 5000 ppm (504 h, Chlorella, total conc 5000 ppm in paint, three weeks, colour intensity vs blank) [%] | Total conc, ppm (lowest total biocide concentration in paint reaching pass level of 75% inhibition) (Chlorella sp., acrylic/silicone paint film on filter paper, three weeks incubation, pass level ≥75% inhibition) [ppm] | % inhibition (Chlorella, total conc 1′000 ppm in paint, three weeks, colour intensity vs blank) [%]
1 | O=c1[nH]sc2ccccc12 [BIT, 1,2-benzisothiazol-3(2H)-one] | 95 | 5000 | –
2 | O=c1[nH]c2c(c(=O)n1C1CCCCC1)CCC2 [LENACIL, 3-Cyclohexyl-6,7-dihydro-1H-cyclopentapyrimidine-2,4-(3H,5H)-dione] | – | – | 90
